Assay results reported in patent publication US20250171437A1 (Agios Pharmaceuticals,Inc., priority 2022, published 2025).

Molecular target: T1, human PAH with the R408W mutation (A375 R408W cells) (Homo sapiens, UniProt P00439, R408W)
T1 construct: expressed in transfected cells
T1 sequence (P00439 1-452 R408W): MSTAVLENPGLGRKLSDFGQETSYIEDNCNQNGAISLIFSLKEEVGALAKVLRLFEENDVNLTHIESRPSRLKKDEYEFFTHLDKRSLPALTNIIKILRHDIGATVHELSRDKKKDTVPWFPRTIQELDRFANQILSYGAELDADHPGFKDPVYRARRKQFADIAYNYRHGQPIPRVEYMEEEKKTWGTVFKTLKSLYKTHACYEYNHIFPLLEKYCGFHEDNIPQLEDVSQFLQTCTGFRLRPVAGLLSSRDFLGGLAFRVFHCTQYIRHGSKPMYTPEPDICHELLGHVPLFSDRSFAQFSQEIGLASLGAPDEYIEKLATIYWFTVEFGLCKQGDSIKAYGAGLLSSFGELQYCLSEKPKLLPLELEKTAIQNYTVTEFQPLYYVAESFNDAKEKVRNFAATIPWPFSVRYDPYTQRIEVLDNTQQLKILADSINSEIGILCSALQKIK
Assay: Cell Based Phenylalanine Flux Assay
Settings: A375 R408W cells; 24 hrs with compound, then 20 μM sepiapterin and 800 μM 13C9,15N-Phenylalanine for 4 hours; 13C-Tyrosine by LC-MS; average where tested multiple times
In short: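 A375 cells stably expressing human PAH R408W treated 24 h at 37° C with a 10-point 2-fold dose curve in duplicate, 0.5% DMSO. Then 20 μM sepiapterin and 800 μM 13C9,15N-Phe added for 4 h; 13C-Tyr in media measured by LC-MS to give AC50.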

Row | AC50 [µM] | SMILES
1 | 0.5 to 1 | COc1ccc2oc([C@H]3c4nc[nH]c4CCN3C(=O)c3ocnc3C(F)F)nc2c1 [Example 342, (R)-(4-(difluoromethyl)oxazol-5-yl)(4-(5-methoxybenzo[d]oxazol-2-yl)-6,7-dihydro-1H-imidazo[4,5-c]pyridin-5(4H)-yl)methanone]
2 | 0.5 to 1 | Cn1nc(Cl)cc1C(=O)N1CCc2[nH]cnc2[C@H]1c1nc2cc(F)ccc2o1 [Example 127, (S)-(3-chloro-1-methyl-1H-pyrazol-5-yl)(4-(5-fluorobenzo[d]oxazol-2-yl)-6,7-dihydro-1H-imidazo[4,5-c]pyridin-5(4H)-yl)methanone]
3 | ≤ 0.5 | Cc1ccc2oc([C@H]3c4nc[nH]c4CCN3C(=O)c3oc(-c4cn(C)cn4)nc3C(F)F)nc2c1 [Example 783, (R)-(4-(difluoromethyl)-2-(1-methyl-1H-imidazol-4-yl)oxazol-5-yl)(4-(5-methylbenzo[d]oxazol-2-yl)-6,7-dihydro-1H-imidazo[4,5-c]pyridin-5(4H)-yl)methanone]
4 | 0.5 to 1 | O=C(c1nnc(-c2ccccn2)o1)N1CCc2[nH]cnc2[C@H]1c1nc2c(F)cc(F)cc2o1 [Example 523, (S)-(4-(4,6-difluorobenzo[d]oxazol-2-yl)-6,7-dihydro-1H-imidazo[4,5-c]pyridin-5(4H)-yl)(5-(pyridin-2-yl)-1,3,4-oxadiazol-2-yl)methanone]
5 | 1 to 5 | CC(O)c1nc(Cl)c(C(=O)N2CCc3[nH]cnc3[C@@H]2c2nc3cc(F)ccc3o2)o1 (single isomer, unassigned) [Example 234]
6 | ≤ 0.5 | CC(C)(O)c1nc(C(F)F)c(C(=O)N2CCc3[nH]cnc3[C@H]2c2nc3cc(Br)cc(F)c3o2)o1 [Example 571, (S)-(4-(5-bromo-7-fluorobenzo[d]oxazol-2-yl)-6,7-dihydro-1H-imidazo[4,5-c]pyridin-5(4H)-yl)(4-(difluoromethyl)-2-(2-hydroxypropan-2-yl)oxazol-5-yl)methanone]
7 | 1 to 5 | COc1ccc2oc([C@H]3c4nc[nH]c4CCN3C(=O)c3nnc(-c4cnn(C)c4)o3)nc2c1 [Example 554, (R)-(4-(5-methoxybenzo[d]oxazol-2-yl)-6,7-dihydro-1H-imidazo[4,5-c]pyridin-5(4H)-yl)(5-(1-methyl-1H-pyrazol-4-yl)-1,3,4-oxadiazol-2-yl)methanone]
8 | ≤ 0.5 | C[C@H](O)c1nc(C(F)F)c(C(=O)N2CCc3[nH]cnc3[C@H]2c2nc3cccc(F)c3o2)o1 [Example 243, (4-(difluoromethyl)-2-((S)-1-hydroxyethyl)oxazol-5-yl)((S)-4-(7-fluorobenzo[d]oxazol-2-yl)-6,7-dihydro-1H-imidazo[4,5-c]pyridin-5(4H)-yl)methanone]
9 | ≤ 0.5 | O=C(c1oc(-c2ccccn2)nc1C(F)(F)F)N1CCc2[nH]cnc2[C@@H]1c1nc2cc(F)ccc2o1 [Example 50, (R)-(4-(5-fluorobenzo[d]oxazol-2-yl)-6,7-dihydro-1H-imidazo[4,5-c]pyridin-5(4H)-yl)(2-(pyridin-2-yl)-4-(trifluoromethyl)oxazol-5-yl)methanone]
10 | 1 to 5 | Cn1nccc1C(=O)N1CCc2[nH]cnc2[C@H]1c1nc2ccccc2o1 [Example 711, (S)-(4-(benzo[d]oxazol-2-yl)-6,7-dihydro-1H-imidazo[4,5-c]pyridin-5(4H)-yl)(1-methyl-1H-pyrazol-5-yl)methanone]
11 | 1 to 5 | CC(C)(O)c1nc(C(F)F)c(C(=O)N2CCc3[nH]cnc3[C@@H]2c2nc3cccc(C(F)(F)F)c3o2)o1 [Example 454, (R)-(4-(difluoromethyl)-2-(2-hydroxypropan-2-yl)oxazol-5-yl)(4-(7-(trifluoromethyl)benzo[d]oxazol-2-yl)-6,7-dihydro-1H-imidazo[4,5-c]pyridin-5(4H)-yl)methanone]
12 | 0.5 to 1 | Cn1cc(-c2nc(C(F)F)c(C(=O)N3CCc4[nH]cnc4[C@@H]3c3nc4cccc(F)c4o3)o2)cn1 [Example 635, (R)-(4-(difluoromethyl)-2-(1-methyl-1H-pyrazol-4-yl)oxazol-5-yl)(4-(7-fluorobenzo[d]oxazol-2-yl)-6,7-dihydro-1H-imidazo[4,5-c]pyridin-5(4H)-yl)methanone]
13 | 1 to 5 | Cc1cccc2oc([C@H]3c4nc[nH]c4CCN3C(=O)c3cnco3)nc12 [Example 510, (R)-(4-(4-methylbenzo[d]oxazol-2-yl)-6,7-dihydro-1H-imidazo[4,5-c]pyridin-5(4H)-yl)(oxazol-5-yl)methanone]
14 | ≤ 0.5 | CC(C)(O)c1nc(C(F)F)c(C(=O)N2CCc3[nH]cnc3[C@@H]2c2nc3cc(Br)cc(F)c3o2)o1 [Example 572, (R)-(4-(5-bromo-7-fluorobenzo[d]oxazol-2-yl)-6,7-dihydro-1H-imidazo[4,5-c]pyridin-5(4H)-yl)(4-(difluoromethyl)-2-(2-hydroxypropan-2-yl)oxazol-5-yl)methanone]
15 | ≤ 0.5 | O=C(c1ocnc1C(F)(F)F)N1CCc2[nH]cnc2[C@@H]1c1nc2ccc(Br)cc2o1 [Example 144, (R)-(4-(6-bromobenzo[d]oxazol-2-yl)-6,7-dihydro-1H-imidazo[4,5-c]pyridin-5(4H)-yl)(4-(trifluoromethyl)oxazol-5-yl)methanone]
16 | ≥ 5 | O=C(c1cnn2cc(Br)c(Cl)cc12)N1CCc2[nH]cnc2[C@@H]1c1nc2cc(F)ccc2o1 [Example 166, (R)-(6-bromo-5-chloropyrazolo[1,5-a]pyridin-3-yl)(4-(5-fluorobenzo[d]oxazol-2-yl)-6,7-dihydro-1H-imidazo[4,5-c]pyridin-5(4H)-yl)methanone]
17 | 0.5 to 1 | O=C(c1cnn2cc(N3CCC4(CC3)CC4)ccc12)N1CCc2[nH]cnc2[C@H]1c1nc2c(F)cccc2o1 [Example 505, (S)-(6-(6-azaspiro[2.5]octan-6-yl)pyrazolo[1,5-a]pyridin-3-yl)(4-(4-fluorobenzo[d]oxazol-2-yl)-6,7-dihydro-1H-imidazo[4,5-c]pyridin-5(4H)-yl)methanone]
18 | ≤ 0.5 | O=C(c1nnc(-c2ncccc2F)o1)N1CCc2[nH]cnc2[C@H]1c1nc2cccc(C(F)(F)F)c2o1 [Example 840, (S)-(5-(3-fluoropyridin-2-yl)-1,3,4-oxadiazol-2-yl)(4-(7-(trifluoromethyl)benzo[d]oxazol-2-yl)-6,7-dihydro-1H-imidazo[4,5-c]pyridin-5(4H)-yl)methanone]
19 | 0.5 to 1 | Cc1nc(C(C)(C)O)oc1C(=O)N1CCc2[nH]cnc2[C@H]1c1nc2c(F)cccc2o1 [Example 259, (S)-(4-(4-fluorobenzo[d]oxazol-2-yl)-6,7-dihydro-1H-imidazo[4,5-c]pyridin-5(4H)-yl)(2-(2-hydroxypropan-2-yl)-4-methyloxazol-5-yl)methanone]
20 | 0.5 to 1 | O=C(c1ccnn1C(F)F)N1CCc2[nH]cnc2[C@H]1c1nc2c(F)cccc2o1 [Example 201, (S)-(1-(difluoromethyl)-1H-pyrazol-5-yl)(4-(4-fluorobenzo[d]oxazol-2-yl)-6,7-dihydro-1H-imidazo[4,5-c]pyridin-5(4H)-yl)methanone]
21 | 1 to 5 | O=C(c1oc(N2CCOCC2)nc1C(F)F)N1CCc2[nH]cnc2[C@@H]1c1nc2cc(F)ccc2o1 [Example 414, (R)-(4-(difluoromethyl)-2-morpholinooxazol-5-yl)(4-(5-fluorobenzo[d]oxazol-2-yl)-6,7-dihydro-1H-imidazo[4,5-c]pyridin-5(4H)-yl)methanone]
22 | ≤ 0.5 | CC(C)(O)c1nc(C(F)F)c(C(=O)N2CCc3[nH]cnc3[C@H]2c2nc3cccc(C(F)(F)F)c3o2)o1 [Example 453, (S)-(4-(difluoromethyl)-2-(2-hydroxypropan-2-yl)oxazol-5-yl)(4-(7-(trifluoromethyl)benzo[d]oxazol-2-yl)-6,7-dihydro-1H-imidazo[4,5-c]pyridin-5(4H)-yl)methanone]
23 | 0.5 to 1 | COCc1ccc2c(C(=O)N3CCc4[nH]cnc4[C@H]3c3nc4cccc(F)c4o3)cnn2c1 [Example 265, (S)-(4-(7-fluorobenzo[d]oxazol-2-yl)-6,7-dihydro-1H-imidazo[4,5-c]pyridin-5(4H)-yl)(6-(methoxymethyl)pyrazolo[1,5-a]pyridin-3-yl)methanone]

Same assay, conditions: A375 cells expressing R408W PAH; 24 hrs with compound, then 20 μM sepiapterin and 800 μM 13C9,15N-Phenylalanine for 4 hours; 13C-Tyrosine by LC-MS; average where tested multiple times

Row | AC50 [µM] | SMILES
24 | 1 to 5 | O=C(c1nnc(-c2ccncn2)o1)N1CCc2[nH]cnc2C1c1nc2cc(F)ccc2o1 (stereo not drawn)
25 | 1 to 5 | O=C(c1cnn2cc(N3CCC(O)CC3)ccc12)N1CCc2[nH]cnc2C1c1nc2c(F)cc(F)cc2o1 (stereo not drawn)
26 | ≥ 5 | O=C(c1cnco1)N1CCc2[nH]cnc2C1c1nc2c(F)cc(F)cc2o1 (stereo not drawn)
27 | 1 to 5 | Cn1cncc1-c1nnc(C(=O)N2CCc3[nH]cnc3C2c2nc3cc(F)ccc3o2)o1 (stereo not drawn)
28 | 1 to 5 | O=C(CCc1ncco1)N1CCc2[nH]cnc2C1c1nc2ccc(F)cc2o1 (stereo not drawn)
29 | ≥ 5 | N#Cc1ncoc1C(=O)N1CCc2[nH]cnc2C1c1nc2cc(F)ccc2o1 (stereo not drawn)
30 | 1 to 5 | Cc1nc(C2(O)CCC2)oc1C(=O)N1CCc2[nH]cnc2C1c1nc2cc(F)ccc2o1 (stereo not drawn)
31 | ≥ 5 | O=C(c1nnc(-c2cnn(C(F)F)c2)o1)N1CCc2[nH]cnc2C1c1nc2cc(C(F)(F)F)ccc2o1 (stereo not drawn)
32 | ≥ 5 | O=C(c1ccn[nH]1)N1CCc2[nH]cnc2C1c1nc2cc(F)ccc2o1 (stereo not drawn)
33 | 1 to 5 | Cn1ncnc1C(=O)N1CCc2[nH]cnc2C1c1nc2ccccc2o1 (stereo not drawn)
